Data taken from patent EP0286252A2, “Anti-cancer composition & method featuring cyanine dyes” (DANA FARBER CANCER INSTITUTE, priority 1987, dated 1988).

Tests used:
[1] = tested on: stomach cancer; conditions: treating stomach cancer in Japan; Antibiotics Chemother., Vol. 24 (1978); cited from earlier work
[2] = tested on: human melanoma cell line, LOX; test: LOX melanoma survival test, nude mice protocol; assay type: in vivo, athymic Swiss nu/nu mice; conditions: for T/C: survival of treated vs untreated control group, 5 million LOX cells IP, IP treatment from day 1, lower dosage schedule for Dye 5
Text: (§1) Figs. 1-8 are a plot of survival rates of a cancer in an animal model, either treated as per the invention or untreated. In these plots, "% survival" means the % of the total group (treated "T" or control "C") still surviving on the day in question. The 50% data point is selected for the T/C calculation, as being the point that is statistically meaningful.
(§2) In the examples that follow, "nude mice protocol" refers to conventional xenografted human carcinoma or melanoma cells implanted into athymic mice. […] This has been reported in, e.g., the Journal of the National Cancer Institute, Vol. 74, No. 4, p. 899-903, especially p. […] (April 1985).
A human melanoma cell line, LOX, was utilized that grows rapidly when innoculated into the peritoneal cavity of athymic mice. Tumors which had been passaged subcutaneously in athymic mice were excised under sterile conditions and converted to a single cell suspension using a metal grid with a 4 mm mesh. Red blood cells were then lysed by incubation with 0.17 molar ammonium chloride at 4°C for 20 minutes. Cells were then scored for viability with trypan blue and 5 million viable cells made up in 0.1 ml of Dulbecco modified Eagles' medium (DME) were injected intraperitoneally into a group of athymic Swiss nu/nu mice (day 0). The mice were then randomly allocated into treatment and control groups. Treatment, by intraperitoneal injection, commenced the following day (day 1). Mice received dye No. 1 or Dye No. 2 at 1 mg/kg daily for five days followed by 1.5 mg/kg on day 8, 10, 12, 14 and 16, and twice a week at 2 mg/kg thereafter. There were 10 mice in each of the treatment groups and control group. The control group received 5% dextrose solution equal in volume to that of the Dye No. 1 treated group.
In the same experiment, the comparative example 1 was administered to 10 mice using the following schedule: 0.2 mg/kg daily for five days followed by 0.5 mg/kg on day 8, 10, 12, 14 and 16, and twice a week at 1 mg/kg thereafter.
T/C is the ratio, expressed as a percentage, of mean survival age of the treated group, to the mean survival age of the untreated control group.

[3] = tested on: CX-1 (human colon carcinoma); test: clonogenic in vitro study, inhibition of cell colony formation; assay type: cell-based; conditions: concentration of dye that inhibits 50% of cell colony formation, regular lighting conditions of laboratories; for IC50: Homo sapiens
Text: As noted above, one of the advantages of the invention is that the cyanines described herein selectively attack the cancer cells as opposed to normal cells. Although knowledge of the mechanism is not essential to the practice of the invention, it is believed this occurs through the preferential inhibition of oxygen consumption in the mitochondria of the cancer cells. Such selectivity is further shown in clonogenic in vitro studies carried out in conventional fashion. That is, cell cultures of CX-1 (human colon carcinoma) and CV-1 (normal monkey epithelial cells) are prepared and treated at various concentrations, in the conventional manner, and the concentration of the dye that inhibits 50% of the cell colony formation is denoted as IC₅₀. This IC₅₀ value is compared for both the CX-1 and CV-1 lines; that is, the value for CV-1 is divided by the value for CX-1. If the value is 10 µg/ml for CV-1, and 1 µg/ml for CX-1, then the dye is 10 times as effective in killing off the colon carcinoma cells, compared to the monkey epithelial cells. This is expressed as a selectivity "S" of 10.
The selectivity values, and the CX-1 values for four of the cyanines of this invention obtained and tested under regular lighting conditions of laboratories, are listed below in Table I, along with a fifth cyanine used for comparative purposes.

[4] = tested on: MB49 tumor cells; test: mouse bladder carcinoma survival test, dyes given intraperitoneally; assay type: in vivo, normal male BDF1 mice
Description: as §1
MB49 tumor cells, that is, mouse carcinoma cells induced by the carcinogen 7,12-dimethylbenz[a]anthracene, were injected intraperitoneally into normal male BDF1 mice (2 X 10⁶/mouse on day 0). Cyanine Dye No. 1 or No. 2, was administered intraperitioneally in the following manner: 0.2 mg/kg on day 1, 0.4 mg/kg on day 2, 0.8 mg/kg on day 3, 1.2 mg/kg on day 4, 1.5 mg/kg on days 8, 12, 16, 20, 24. (No further injection was used thereafter). […] (No further injection was used thereafter.) The control group of 10 mice was treated with equal volume of 5% dextrose as those treated with dye no. 1. The survival rate was calculated as in the previous examples.

[5] = tested on: CX-1 (human colon carcinoma) and CV-1 (normal monkey epithelial cells); test: clonogenic in vitro selectivity, IC50 for CV-1 divided by IC50 for CX-1; assay type: cell-based; conditions: selectivity: IC50 value for CV-1 divided by value for CX-1
Description: That is, cell cultures of CX-1 (human colon carcinoma) and CV-1 (normal monkey epithelial cells) are prepared and treated at various concentrations, in the conventional manner, and the concentration of the dye that inhibits 50% of the cell colony formation is denoted as IC₅₀. This IC₅₀ value is compared for both the CX-1 and CV-1 lines; that is, the value for CV-1 is divided by the value for CX-1. […] This is expressed as a selectivity "S" of 10.
Their generic structure is as follows: [drawing 7]

[6] = tested on: OVCAR -3, a human ovarian carcinoma cell line; test: ovarian carcinoma survival test, nude mice protocol; assay type: in vivo, athymic Swiss nu/nu mice; conditions: survival of treated vs control; ten million OVCAR-3 cells IP; IP treatment; lower dosage schedule for Dye 5
Text: as §1, §2
Dye Nos. 1 and 2 were repeated, except the cancer that was treated was OVCAR -3, a human ovarian carcinoma cell line of which ten million cells were injected IP into athymic Swiss nu/nu mice. For Ex. 5, 10 mice received dye 1 by IP injection commenced the day after the cancer injection, and repeated daily at 1.5 mg/kg for four days followed by 2 mg/kg on day 7, 10, 13, 16, 19 and 21, and twice a week at 2 mg/kg thereafter. Ten mice having such injected cancer were selected as a control group and received an equal volume of 5% dextrose as that of the treated group.
For Ex. 6, 10 mice received dye no. […]

Question: For `COc1cccc2c1C(=O)c1c(O)c3c(c(O)c1C2=O)C[C@@](O)(C(=O)CO)C[C@@H]3O[C@H]1C[C@H](N)[C@H](O)[C@H](C)O1` [Adriamycin], which effective response rate [1] is on record?
Answer: Its effective response rate is 14.5%.

Question: For `CN1C(=CC=Cc2sc3ccccc3[n+]2C)Sc2ccccc21` [Dye No. 1, 3-methyl-2-[3-(3-methyl-4-benzo-thiazolin-2-ylidene)-1-propen-1-yl]-benzo-thiazolium chloride], which T/C [2] is on record?
Answer: The T/C was 205%.

Question: For `CCN1C(=CC=Cc2sc3ccccc3[n+]2CC)Sc2ccccc21` [Dye No. 2, 3-ethyl-2-[3-(3-ethyl-4-benzothia-zolin-2-ylidene)-1-propen-1-yl]-benzothiazolium iodide], which T/C [2] is on record?
Answer: Its T/C is 176%.

Question: Which results are given for `CCCN1C(=CC=Cc2sc3ccccc3[n+]2CCC)Sc2ccccc21` [Dye No. 5, 3-propyl-2-[3-(3-propyl-4-benzothia-zolin-2-ylidene)-1-propen-1-yl]benzothiazolium iodide]?
Answer: CX-1 Value ([3]; listed as 3): .004 µg/mL; toxicity at the dosage of Dye No. 1 ([2]; LOX-bearing athymic mice, IP, dosage schedule of Dye No. 1 (1 mg/kg daily for five days, then 1.5 and 2 mg/kg)): killed the mice before the 50% survival point of the control could be reached; T/C ([2]; listed as 3): 168%; outcome of treatment (verdict in words) ([4]; MB49 mouse bladder carcinoma, IP): failure

Question: Which IC50 [3] does the source give for `CN1C(=CC=Cc2sc3ccccc3[n+]2C)Sc2ccccc21` [compound 1] here?
Answer: Its IC50 is 5 ng/mL.

Question: With `CCN1C(=CC=Cc2sc3ccccc3[n+]2CC)Sc2ccccc21` [compound 2] as the compound, how does the IC50 [3] read?
Answer: The IC50 was 5 ng/mL.

Question: What does the source list for `CCN1C(=CC=c2sc(=Cc3sc4c([n+]3CC)CCCC4)n(CC)c2=O)Oc2ccccc21` [compound 4]?
Answer: IC50 [3]: 50 ng/mL; S [5]: 100; T/C [2]: 166%

Question: For `CCCN1C(=CC=Cc2sc3ccccc3[n+]2CCC)Sc2ccccc21` [compound 5], which “CX-1 Value” [3] is on record?
Answer: Its value is “.009 µg/mL”.

Question: What about the S [5] of the same compound?
Answer: Its S is 22.

Question: What about the T/C [2] of the same compound?
Answer: The T/C was 128%.

Question: What about the T/C [6] of the same compound?
Answer: Its T/C is 138%.

Question: And the T/C ([4]; survival of treated vs control, 2 X 10^6 MB49 cells/mouse IP, IP treatment, lower dosage schedule for dye No. 5)?
Answer: The T/C was 113%.

Question: For `CCN1C(=CC(=Cc2sc3ccccc3[n+]2C)SC)Sc2ccccc21` [compound 6], which S [5] is on record?
Answer: Its S is 37.5.

Question: With `CCC(=Cc1oc2ccccc2[n+]1CC)C=C1Sc2ccccc2N1CC` [compound 7] as the compound, how does the S [5] read?
Answer: Its S is 33.3.
